Experimental findings from patent US20220162191A1, “SMALL MOLECULE MODULATORS OF IL-17” (LEO PHARMA A/S, priority 2019, published 2022) are described below.

The target of this test is T1, human IL-17AA (Homo sapiens, UniProt Q16552).
T1 construct: host or cells: HEK (human embryonic kidney) cells
T1 sequence (Q16552 24-155) 1: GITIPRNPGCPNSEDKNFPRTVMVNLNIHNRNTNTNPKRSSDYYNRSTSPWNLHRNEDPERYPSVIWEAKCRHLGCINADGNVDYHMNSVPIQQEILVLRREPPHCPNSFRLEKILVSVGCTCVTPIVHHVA
T1 sequence (Q16552 24-155) 2: T1 sequence (Q16552 24-155) 1
The test can be described thus: IL-8 release assay in human epithelial keratinocytes adult (HEKa). Format: cell-based. The conditions noted are these: 3 ng/ml human IL-17AA + 10 ng/ml human TNFalpha, 68-72 h, IL-8 by HTRF, read-out: Rel EC50 L-8 release assay. The procedure, abridged: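 IL-8 secretion, quantified by HTRF (665/620 nm) as percent of controls, served as the readout after 68–72 h culture of HEKa cells with compound plus IL-17AA (3 ng/ml final) and TNF-alpha (10 ng/ml final). Four-parameter logistic curves gave relative IC50 and Emax.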
(In general: In TR-FRET formats the signal depends on donor and acceptor labels being close together.)

For `Cc1n[nH]c(C)c1-c1ccc(NC(=O)[C@@H](NC(=O)OC2CC2)[C@@H]2CCc3ccc(-c4cc(N5C[C@@H]6C[C@H]5CO6)ncn4)cc32)cc1` [Example 374, cyclopropyl N-[(1S)-2-[4-(3,5-dimethyl-1H-pyrazol-4-yl)anilino]-1-[(1R)-6-[6-[(1S,4S)-2-oxa-5-azabicyclo[2.2.1]heptan-5-yl]pyrimidin-4-yl]indan-1-yl]-2-oxo-ethyl]carbamate], the EC50 – broadly, the concentration at which the effect is half-maximal – was 100 to 1000 nM.

For `CC(C)n1cc(-c2ccc(Cl)c(CC(NC(=O)OC(C)(C)C)C(=O)Nc3ccc(-c4cnn[nH]4)cc3)c2)ccc1=O` (stereo not drawn) [Example 76, tert-butyl N-[1-[[2-chloro-5-(1-isopropyl-6-oxo-3-pyridyl)phenyl]methyl]-2-oxo-2-[4-(1H-triazol-5-yl)anilino]ethyl]carbamate], the EC50 was over 1000 nM. Turning to `Cc1nocc1C(=O)NC(Cc1cc(-c2cccc(C(=O)N3CC(F)C3)c2)ccc1Cl)C(=O)Nc1ccc(-c2nncn2C)cc1` (stereo not drawn) [Example 120, N-[1-[[2-chloro-5-[3-(3-fluoroazetidine-1-carbonyl)phenyl]phenyl]methyl]-2-[4-(4-methyl-1,2,4-triazol-3-yl)anilino]-2-oxo-ethyl]-3-methyl-isoxazole-4-carboxamide], the EC50 is 100 to 1000 nM. With `Cc1ncn(C)c1-c1ccc(NC(=O)[C@H](Cc2cc(-c3ccc(=O)n(C(C)C)c3)ccc2Cl)NC(=O)c2ccnn2C)cc1` [Example 143, N-[(1S)-1-[[2-chloro-5-(1-isopropyl-6-oxo-3-pyridyl)phenyl]methyl]-2-[4-(3,5-dimethylimidazol-4-yl)anilino]-2-oxo-ethyl]-2-methyl-pyrazole-3-carboxamide], the EC50 fell in the range of 100 to 1000 nM.

`Cc1n[nH]c(C)c1-c1ccc(NC(=O)[C@@H](NC(=O)c2ccnn2C)[C@@H]2CCc3ccc(-c4cnn(CC(C)(C)O)c4)cc32)cc1` [Example 13, N-[(1S)-2-[4-(3,5-dimethyl-1H-pyrazol-4-yl)anilino]-1-[(1R)-6-[1-(2-hydroxy-2-methyl-propyl)pyrazol-4-yl]indan-1-yl]-2-oxo-ethyl]-2-methyl-pyrazole-3-carboxamide]: the EC50 is under 100 nM. As to `Cc1cnn(C)c1-c1ccc(NC(=O)[C@@H](NC(=O)OC(C)(C)C)[C@@H](c2cccc(-c3ccnc(N4C[C@@H]5C[C@H]4CO5)c3)c2)C2CC2)cc1` [Example 346, tert-butyl N-[(1S)-1-[(R)-cyclopropyl-[3-[2-[(1S,4S)-2-oxa-5-azabicyclo[2.2.1]heptan-5-yl]-4-pyridyl]phenyl]methyl]-2-[4-(2,4-dimethylpyrazol-3-yl)anilino]-2-oxo-ethyl]carbamate], the EC50 is under 100 nM. As to `Cc1n[nH]c(C)c1-c1ccc(NC(=O)[C@H](NC(=O)C2(F)CC2)[C@H](C)c2cccc(-c3ccnc(N4C[C@@H]5C[C@H]4CO5)c3)c2)cc1` [Example 340, N-[(1R,2R)-1-[[4-(3,5-dimethyl-1H-pyrazol-4-yl)phenyl]carbamoyl]-2-[3-[2-[(1S,4S)-2-oxa-5-azabicyclo[2.2.1]heptan-5-yl]-4-pyridyl]phenyl]propyl]-1-fluoro-cyclopropanecarboxamide], the EC50 was in the range of 100 to 1000 nM. As to `Cc1cnn(C)c1-c1ccc(NC(=O)[C@@H](NC(=O)c2ccnn2C)[C@@H](c2cccc(-c3cncc(N4C[C@@H]5C[C@H]4CO5)n3)c2)C2CC2)cc1` [Example 349, N-[(1S)-1-[(R)-cyclopropyl-[3-[6-[(1S,4S)-2-oxa-5-azabicyclo[2.2.1]heptan-5-yl]pyrazin-2-yl]phenyl]methyl]-2-[4-(2,4-dimethylpyrazol-3-yl)anilino]-2-oxo-ethyl]-2-methyl-pyrazole-3-carboxamide], the EC50 was under 100 nM. Next, `Cc1n[nH]c(C)c1-c1ccc(NC(=O)[C@@H](NC(=O)C2(F)CC2)[C@@H]2CCc3ccc(-c4cc(C5CC5)cnn4)cc32)cc1` [Example 384, N-[(1S)-1-[(1R)-6-(5-cyclopropylpyridazin-3-yl)indan-1-yl]-2-[4-(3,5-dimethyl-1H-pyrazol-4-yl)anilino]-2-oxo-ethyl]-1-fluoro-cyclopropanecarboxamide]: 100 to 1000 nM; `CC(C)n1cc(-c2ccc(Cl)c(C[C@H](NC(=O)c3ccnn3C)C(=O)Nc3ccc(-c4cn[nH]c4)c(F)c3)c2)ccc1=O` [Example 138, N-[(1S)-1-[[2-chloro-5-(1-isopropyl-6-oxo-3-pyridyl)phenyl]methyl]-2-[3-fluoro-4-(1H-pyrazol-4-yl)anilino]-2-oxo-ethyl]-2-methyl-pyrazole-3-carboxamide]: 100 to 1000 nM.

In the case of `Cc1n[nH]c(C)c1-c1ccc(NC(=O)[C@@H](NC(=O)c2ccnn2C)[C@@H]2CCCc3ccc(-c4ccc5c(c4)CNC5)cc32)cc1` [Example 35, N-[(1S)-2-[4-(3,5-dimethyl-1H-pyrazol-4-yl)anilino]-1-[(1R)-7-isoindolin-5-yltetralin-1-yl]-2-oxo-ethyl]-2-methyl-pyrazole-3-carboxamide], the EC50 is under 100 nM. With `Cc1n[nH]c(C)c1-c1ccc(NC(=O)[C@@H](NC(=O)C2(F)CC2)[C@@H]2CCCc3ccc(-c4ccc(CN5C[C@H]6C[C@@H]5CO6)cc4)cc32)cc1` [Example 390, N-[(1S)-2-[4-(3,5-dimethyl-1H-pyrazol-4-yl)anilino]-1-[(1R)-7-[4-[[(1R,4R)-2-oxa-5-azabicyclo[2.2.1]heptan-5-yl]methyl]phenyl]tetralin-1-yl]-2-oxo-ethyl]-1-fluoro-cyclopropanecarboxamide] the figure was 100 to 1000 nM; with `Cc1ncn(C)c1-c1ccc(NC(=O)[C@@H](NC(=O)C2(F)CC2)[C@@H]2CCCc3ccc(-c4ccnc(N5C[C@H]6C[C@@H]5CN6)c4)cc32)cc1` [Example 389, N-[(1S)-1-[(1R)-7-[2-[(1R,4R)-2,5-diazabicyclo[2.2.1]heptan-2-yl]-4-pyridyl]tetralin-1-yl]-2-[4-(3,5-dimethylimidazol-4-yl)anilino]-2-oxo-ethyl]-1-fluoro-cyclopropanecarboxamide], 100 to 1000 nM. For `Cc1cnn(C)c1-c1ccc(NC(=O)[C@@H](NC(=O)C2(F)CC2)[C@H](C)c2cccc(-c3cc(N4C[C@@H]5C[C@H]4CO5)ncn3)c2)cc1` [Example 342, N-[(1S,2R)-1-[[4-(2,4-dimethylpyrazol-3-yl)phenyl]carbamoyl]-2-[3-[6-[(1S,4S)-2-oxa-5-azabicyclo[2.2.1]heptan-5-yl]pyrimidin-4-yl]phenyl]propyl]-1-fluoro-cyclopropanecarboxamide], the half-maximal effective concentration (EC50) is over 1000 nM. Next, `Cc1cnn(C)c1-c1ccc(NC(=O)[C@@H](NC(=O)c2ccnn2C)[C@@H]2CCc3ccc(-c4ccnc(N5C[C@@H]6C[C@H]5CO6)c4)cc32)cc1` [Example 378, N-[(1S)-2-[4-(2,4-dimethylpyrazol-3-yl)anilino]-1-[(1R)-6-[2-[(1S,4S)-2-oxa-5-azabicyclo[2.2.1]heptan-5-yl]-4-pyridyl]indan-1-yl]-2-oxo-ethyl]-2-methyl-pyrazole-3-carboxamide]: under 100 nM; `Cc1n[nH]c(C)c1-c1ccc(NC(=O)[C@H](Cc2cc(-c3ccc(=O)n(C(C)C)c3)ccc2Cl)NC(=O)C2(F)CC2)cc1` [Example 137, N-[(1S)-1-[[2-chloro-5-(1-isopropyl-6-oxo-3-pyridyl)phenyl]methyl]-2-[4-(3,5-dimethyl-1H-pyrazol-4-yl)anilino]-2-oxo-ethyl]-1-fluoro-cyclopropanecarboxamide]: under 100 nM; `Cc1n[nH]c(C)c1-c1ccc(NC(=O)[C@@H](NC(=O)C2(F)CC2)[C@@H]2CCCc3ccc(-c4ccc(=O)n(C(C)C)c4)cc32)cc1` [Example 27, N-[(1S)-2-[4-(3,5-dimethyl-1H-pyrazol-4-yl)anilino]-1-[(1R)-7-(1-isopropyl-6-oxo-3-pyridyl)tetralin-1-yl]-2-oxo-ethyl]-1-fluoro-cyclopropanecarboxamide]: under 100 nM.

As to `Cc1cnn(C)c1-c1ccc(NC(=O)[C@H](Cc2cc(-c3ccc(=O)n(C(C)C)c3)ccc2Cl)NC(=O)C(C)C2CC2)cc1` (stereo partly drawn) [Example 332, (2S)-3-[2-chloro-5-(1-isopropyl-6-oxo-3-pyridyl)phenyl]-2-(2-cyclopropylpropanoylamino)-[4-(2,4-dimethylpyrazol-3-yl)phenyl]propanamide], the EC50 is over 1000 nM. Next, `Cc1cnn(C)c1-c1ccc(NC(=O)[C@@H](NC(=O)C2(F)CC2)[C@@H]2CCc3ccc(-c4cc(C)c(=O)n(C(C)C)c4)cc32)cc1` [Example 355, N-[(1S)-2-[4-(2,4-dimethylpyrazol-3-yl)anilino]-1-[(1R)-6-(1-isopropyl-5-methyl-6-oxo-3-pyridyl)indan-1-yl]-2-oxo-ethyl]-1-fluoro-cyclopropanecarboxamide]: 100 to 1000 nM. Next, `Cn1cncc1-c1ccc(NC(=O)C(Cc2cc(-c3ccnc(N4CC(N)C4)c3)ccc2Cl)NC(=O)c2ccnn2C)cc1` (stereo not drawn) [Example 195, N-[1-[[5-[2-(3-aminoazetidin-1-yl)-4-pyridyl]-2-chloro-phenyl]methyl]-2-[4-(3-methylimidazol-4-yl)anilino]-2-oxo-ethyl]-2-methyl-pyrazole-3-carboxamide]: 100 to 1000 nM.

Turning to `Cc1cnn(C)c1-c1ccc(NC(=O)[C@@H](NC(=O)C2(F)CC2)[C@@H]2CCc3ccc(-c4cc(N5C[C@@H]6C[C@H]5CO6)ncn4)cc32)cc1` [Example 365, N-[(1S)-2-[4-(2,4-dimethylpyrazol-3-yl)anilino]-1-[(1R)-6-[6-[(1S,4S)-2-oxa-5-azabicyclo[2.2.1]heptan-5-yl]pyrimidin-4-yl]indan-1-yl]-2-oxo-ethyl]-1-fluoro-cyclopropanecarboxamide], the EC50 was 100 to 1000 nM.
